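Step 1: Grow cells in 96-well plates. Step 2: Expose to compound for 48 hours at 5 concentrations. Step 3: Interpolate endpoints linearly; if unreached, use highest concentration. TGI is the concentration that stops growth completely.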
Assays:
Assay in all cases: growth of human tumour cells (NCI), 48 h
CAKI-1 renal = system: CAKI-1 renal
CCRF-CEM leukemia = system: CCRF-CEM leukemia
DU-145 prostate = system: DU-145 prostate
HCT-116 colon = system: HCT-116 colon
HL-60(TB) leukemia = system: HL-60(TB) leukemia
HOP-62 NSCLC = system: HOP-62 NSCLC
HOP-92 NSCLC = system: HOP-92 NSCLC
HT29 colon = system: HT29 colon
IGROV1 ovarian = system: IGROV1 ovarian
MALME-3M melanoma = system: MALME-3M melanoma
MDA-MB-231 breast = system: MDA-MB-231 breast
RXF 393 renal = system: RXF 393 renal
SF-268 CNS = system: SF-268 CNS
SR leukemia = system: SR leukemia
SW-620 colon = system: SW-620 colon
SK-MEL-2 melanoma = system: SK-MEL-2 melanoma

| Compound | TGI (CAKI-1 renal) [µM] | TGI (CCRF-CEM leukemia) [µM] | TGI (DU-145 prostate) [µM] | TGI (HCT-116 colon) [µM] | TGI (HL-60(TB) leukemia) [µM] | TGI (HOP-62 NSCLC) [µM] | TGI (HOP-92 NSCLC) [µM] | TGI (HT29 colon) [µM] | TGI (IGROV1 ovarian) [µM] | TGI (MALME-3M melanoma) [µM] | TGI (MDA-MB-231 breast) [µM] | TGI (RXF 393 renal) [µM] | TGI (SF-268 CNS) [µM] | TGI (SR leukemia) [µM] | TGI (SW-620 colon) [µM] | TGI (SK-MEL-2 melanoma) [µM] |
| --- | --- | --- | --- | --- | --- | --- | --- | --- | --- | --- | --- | --- | --- | --- | --- | --- |
| O=C1C(Cl)C(c2cccc(Cl)c2)N1c1ccc(-n2c(=S)[nH]c3ccccc3c2=O)cc1 (stereo not given) | > 100 | 77.5 | > 100 | 85.3 | 52.1 | 73.8 | 94.5 | 43.3 | 23.9 | > 100 | 74.3 | 29 | 39 | 30 | > 100 | – |
| Cc1ccc(C)c(COCCOCn2ccc(N)nc2=O)c1 | > 100 | > 100 | > 100 | > 100 | > 100 | > 100 | > 100 | – | > 100 | > 100 | > 100 | > 100 | > 100 | > 100 | > 100 | > 100 |
| NNc1nncc2n[nH]nc12 | > 100 | > 100 | > 100 | > 100 | > 100 | > 100 | – | > 100 | > 100 | – | > 100 | > 100 | > 100 | > 100 | > 100 | > 100 |
| COc1cc(O)c2c(c1)OCC(Cc1ccc(O)cc1)C2=O (stereo not given) | > 100 | > 100 | > 100 | > 100 | > 100 | > 100 | > 100 | > 100 | > 100 | > 100 | > 100 | > 100 | > 100 | > 100 | > 100 | > 100 |
| Cc1ccc(/C=C2\CCC/C(=C\c3ccc(O)c(CN4CCCCC4)c3)C2=O)cc1 | 33 | > 29.1 | 16.6 | 7.65 | > 100 | > 51.7 | 25.2 | 3.78 | 26.5 | 43.7 | 22.3 | 27.1 | 13 | 8.62 | 17.7 | > 54.8 |
| O=C1CCCC2(c3ccccc3)Nc3ccccc3N12 (stereo not given) | > 100 | > 100 | > 100 | > 100 | > 100 | > 100 | > 100 | > 100 | > 100 | > 100 | > 100 | > 100 | > 100 | > 100 | > 100 | > 100 |
| COc1ccc(N2C(=O)C3ON(C(C(N)=O)c4ccccc4)C(c4cc5ccccc5c5ccccc45)C3C2=O)cc1 (stereo not given) | 18.5 | > 50 | > 50 | > 50 | > 50 | > 50 | > 50 | > 50 | > 50 | > 50 | > 50 | > 50 | > 50 | > 50 | > 50 | > 50 |
| COC(=O)C1=C(C(=O)OC)c2cc(OC)ccc2C(C(=S)N(C)C)S1 (stereo not given) | > 100 | – | > 100 | > 100 | – | > 100 | > 100 | – | > 100 | > 100 | > 100 | > 100 | > 100 | > 100 | > 100 | > 100 |
| CC(C)(C)c1ccc(-c2nc3ccc(Cl)cc3c(=O)o2)cc1 | 63.9 | 34.2 | 92.4 | 40.5 | 42.4 | 49.7 | 46.8 | 63.8 | 87.2 | 50.9 | 18.6 | 87.1 | 77.3 | 47.9 | > 100 | 44.2 |
| CC12CCC([C@H](C(O)C3CCCCC3)C1=O)C2(C)C (stereo not given in full) | > 100 | > 100 | > 100 | > 100 | 42.4 | > 100 | > 100 | – | > 100 | – | > 100 | > 100 | > 100 | > 100 | > 100 | > 100 |
| NC(CCC(=O)O)C(=O)N1CCN(c2nc(N3CCCC3)c3nc(Cl)c(NCc4ccccc4)nc3n2)CC1 (stereo not given) | 39.6 | 26.2 | 21.9 | 28.4 | 24.4 | 28.4 | 32.2 | 25.5 | 40 | 33.6 | 31.2 | – | 29.1 | 17.5 | 51.3 | 31.5 |
| Cc1ccc(NC(=O)c2cccc(OP(=O)(O)Nc3ccc(C)cc3)c2)cc1 | > 100 | > 100 | > 100 | > 100 | > 100 | > 100 | > 100 | > 100 | > 100 | > 100 | > 100 | > 100 | > 100 | > 100 | > 100 | > 100 |
| CC1=CC(=O)N(n2c(Cc3ccccc3)n[nH]c2=O)C1=O | > 100 | 62.7 | > 100 | > 100 | – | – | > 100 | > 100 | > 100 | > 100 | > 100 | > 100 | > 100 | > 100 | > 100 | > 100 |
| NC(N)=N/N=C/c1c(-c2cccc([N+](=O)[O-])c2)nc2n1CCS2 | 68.4 | > 100 | 36.4 | > 100 | 45.6 | > 100 | 39.7 | 32.7 | 30.9 | 38.1 | 44.5 | 36 | 46.6 | 34.9 | 37.7 | 34 |
| COc1ccc(C2C3=C(Nc4ncnn42)c2ccccc2OC3c2ccccc2)cc1 (stereo not given) | > 100 | – | > 100 | > 100 | 8.92 | > 100 | – | – | > 100 | – | > 100 | 48.1 | > 100 | > 100 | > 100 | 53.9 |
| Cc1ccccc1N=Nc1ccc(N/N=C2/CCCNC2=O)c(C)c1 | > 100 | > 100 | > 100 | > 100 | > 100 | > 100 | > 100 | > 100 | > 100 | > 100 | > 100 | > 100 | > 100 | > 100 | > 100 | > 100 |
